The target in this test is HCV RdRp (NS5B) (UniProt P26663). The class given is biochemical, hepatitis C virus.
Chain of HCV RdRp (NS5B) (P26663 whole entry, looked up): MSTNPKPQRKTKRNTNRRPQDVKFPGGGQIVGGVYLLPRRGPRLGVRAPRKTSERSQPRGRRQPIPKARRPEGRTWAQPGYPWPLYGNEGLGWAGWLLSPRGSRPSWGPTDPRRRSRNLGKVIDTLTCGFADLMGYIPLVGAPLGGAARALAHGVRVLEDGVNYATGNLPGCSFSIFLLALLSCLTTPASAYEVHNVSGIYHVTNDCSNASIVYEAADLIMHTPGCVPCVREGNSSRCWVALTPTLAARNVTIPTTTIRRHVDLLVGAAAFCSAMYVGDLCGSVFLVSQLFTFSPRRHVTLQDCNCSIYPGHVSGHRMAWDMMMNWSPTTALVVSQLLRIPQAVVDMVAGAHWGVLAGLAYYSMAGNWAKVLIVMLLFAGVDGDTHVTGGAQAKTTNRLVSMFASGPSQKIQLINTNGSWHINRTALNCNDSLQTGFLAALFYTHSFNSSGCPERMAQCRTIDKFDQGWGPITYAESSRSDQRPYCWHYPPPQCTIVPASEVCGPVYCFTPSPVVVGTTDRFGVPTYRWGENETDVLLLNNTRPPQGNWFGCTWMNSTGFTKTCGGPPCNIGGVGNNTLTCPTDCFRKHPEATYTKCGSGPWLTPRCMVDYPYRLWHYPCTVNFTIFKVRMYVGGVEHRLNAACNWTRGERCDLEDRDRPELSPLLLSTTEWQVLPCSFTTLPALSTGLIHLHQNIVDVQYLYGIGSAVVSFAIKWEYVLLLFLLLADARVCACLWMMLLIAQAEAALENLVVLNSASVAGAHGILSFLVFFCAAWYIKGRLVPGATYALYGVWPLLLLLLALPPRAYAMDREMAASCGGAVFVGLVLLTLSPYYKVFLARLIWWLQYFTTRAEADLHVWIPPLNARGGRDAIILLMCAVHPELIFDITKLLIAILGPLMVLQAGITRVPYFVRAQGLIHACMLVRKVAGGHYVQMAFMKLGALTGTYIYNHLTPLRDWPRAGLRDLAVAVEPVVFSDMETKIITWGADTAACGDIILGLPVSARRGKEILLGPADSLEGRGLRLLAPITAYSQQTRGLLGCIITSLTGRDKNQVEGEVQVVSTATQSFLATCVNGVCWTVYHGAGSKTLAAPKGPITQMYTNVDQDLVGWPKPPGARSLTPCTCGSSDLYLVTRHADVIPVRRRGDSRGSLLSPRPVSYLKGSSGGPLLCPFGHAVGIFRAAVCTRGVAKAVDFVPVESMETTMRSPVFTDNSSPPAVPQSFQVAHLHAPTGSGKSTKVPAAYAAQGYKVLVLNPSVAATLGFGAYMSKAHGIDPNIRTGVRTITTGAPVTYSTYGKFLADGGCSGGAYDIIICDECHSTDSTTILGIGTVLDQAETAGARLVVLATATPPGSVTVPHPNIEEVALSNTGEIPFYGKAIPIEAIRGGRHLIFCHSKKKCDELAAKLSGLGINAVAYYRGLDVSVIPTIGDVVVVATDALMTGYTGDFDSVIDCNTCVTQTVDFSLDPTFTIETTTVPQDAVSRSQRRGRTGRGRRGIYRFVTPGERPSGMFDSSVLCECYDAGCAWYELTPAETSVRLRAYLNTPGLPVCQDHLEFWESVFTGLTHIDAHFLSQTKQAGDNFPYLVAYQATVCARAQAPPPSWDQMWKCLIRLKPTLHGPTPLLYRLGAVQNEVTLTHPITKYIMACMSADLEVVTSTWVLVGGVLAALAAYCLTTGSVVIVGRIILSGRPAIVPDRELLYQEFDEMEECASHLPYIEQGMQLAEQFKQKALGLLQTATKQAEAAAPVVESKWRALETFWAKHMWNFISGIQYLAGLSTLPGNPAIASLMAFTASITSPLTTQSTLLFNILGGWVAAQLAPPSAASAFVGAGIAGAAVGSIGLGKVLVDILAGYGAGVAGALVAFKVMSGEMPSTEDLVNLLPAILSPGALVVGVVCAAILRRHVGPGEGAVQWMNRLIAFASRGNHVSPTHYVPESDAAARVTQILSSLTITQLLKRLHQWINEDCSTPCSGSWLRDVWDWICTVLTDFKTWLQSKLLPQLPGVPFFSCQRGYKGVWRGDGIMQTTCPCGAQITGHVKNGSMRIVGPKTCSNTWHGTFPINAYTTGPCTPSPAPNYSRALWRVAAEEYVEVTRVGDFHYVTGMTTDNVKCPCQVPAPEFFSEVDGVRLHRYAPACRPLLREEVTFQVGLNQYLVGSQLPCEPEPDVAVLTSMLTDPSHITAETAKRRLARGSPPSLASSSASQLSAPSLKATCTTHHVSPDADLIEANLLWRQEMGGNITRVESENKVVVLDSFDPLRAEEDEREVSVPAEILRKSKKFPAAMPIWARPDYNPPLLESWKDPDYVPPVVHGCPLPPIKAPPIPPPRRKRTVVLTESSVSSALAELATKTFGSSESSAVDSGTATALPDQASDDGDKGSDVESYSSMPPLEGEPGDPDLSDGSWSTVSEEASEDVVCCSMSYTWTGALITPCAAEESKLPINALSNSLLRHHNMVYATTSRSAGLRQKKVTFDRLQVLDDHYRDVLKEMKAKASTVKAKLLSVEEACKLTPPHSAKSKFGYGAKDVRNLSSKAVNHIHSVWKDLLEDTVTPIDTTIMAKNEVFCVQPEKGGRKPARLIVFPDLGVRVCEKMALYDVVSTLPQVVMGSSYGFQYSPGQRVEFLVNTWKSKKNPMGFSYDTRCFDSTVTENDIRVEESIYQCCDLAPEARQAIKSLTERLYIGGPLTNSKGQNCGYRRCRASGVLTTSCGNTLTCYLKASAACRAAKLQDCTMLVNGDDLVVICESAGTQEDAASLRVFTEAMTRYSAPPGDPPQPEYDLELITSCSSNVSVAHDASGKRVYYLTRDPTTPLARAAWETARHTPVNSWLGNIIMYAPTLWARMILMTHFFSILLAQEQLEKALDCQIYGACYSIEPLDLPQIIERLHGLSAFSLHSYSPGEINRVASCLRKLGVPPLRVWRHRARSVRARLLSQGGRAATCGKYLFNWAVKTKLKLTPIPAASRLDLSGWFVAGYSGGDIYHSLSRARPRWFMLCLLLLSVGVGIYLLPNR

Regarding `CC(C)(C)c1ccc(NC(=O)[C@H](Cc2ccc(CN)cc2)NC(=O)NCc2ccc(Cl)c(Cl)c2)cc1` [Compound 149, (S)-3-(4-AMINOMETHYL-PHENYL)-N-(4-TERT-BUTYL-PHENYL)-2-[3-(3,4-DICHLORO-BENZYL)-UREIDO]-PROPIONAMIDE], the IC50 was under 10 µM.
For `Cc1ccc(NC(=O)[C@H](CCCCN)NC(=O)CNCc2cccc(F)c2)cc1` [Compound 345, (S)-6-AMINO-2-[2-(3-FLUORO-BENZYLAMINO)-ACETYLAMINO]-HEXANOIC ACID P-TOLYLAMIDE] the value was over 50 µM; for `Cc1cc(NC(=O)[C@H](CCCCN)NC(=O)Nc2ccc(OCc3ccccc3)cc2)n(-c2ccccc2)n1` [Compound 316, (S)-6-AMINO-2-[3-(4-BENZYLOXY-PHENYL)-UREIDO]-HEXANOIC ACID (5-METHYL-2-PHENYL-2H-PYRAZOL-3-YL)-AMIDE], 10 to 50 µM.
The compound `NCCCC[C@H](NC(=O)Nc1ccc(OCc2ccccc2)cc1)C(=O)NCCO` [Compound 260, (S)-6-AMINO-2-[3-(4-BENZYLOXY-PHENYL)-UREIDO]-HEXANOIC ACID (2-HYDROXY-ETHYL)-AMIDE] showed a concentration for half-maximal inhibition (IC50) of over 50 µM.
In the case of `CC(C)(NC(=O)OCC1c2ccccc2-c2ccccc21)C(=O)Nc1ccc(C=CC(=O)O)cc1` [Compound 39, 3-{4-[2-((9H-FLUOREN-9-YLMETHOXYCARBONYL)AMINO)-2-METHYL-PROPIONYLAMINO]-PHENYL}-ACRYLIC ACID], the IC50 was over 50 µM.
Take `Cc1ccc(NC(=O)C(Cc2ccc(N)cc2)NC(=O)OCC2c3ccccc3-c3ccccc32)cc1` [Compound 180, (S)-[2-(4-AMINO-PHENYL)-1-P-TOLYLCARBAMOYL-ETHYL]-CARBAMIC ACID 9H-FLUOREN-9-YLMETHYL ESTER]: the 50% inhibitory concentration (IC50) was over 50 µM.
`Cc1ccc(NC(=O)C(CCCCN)NC(=O)CC2c3ccccc3-c3ccccc32)cc1` [Compound 53, (S)-6-AMINO-2-(2-9H-FLUOREN-9-YL-ACETYLAMINO)-HEXANOIC ACID P-TOLYLAMIDE] yielded an IC50 of over 50 µM.
In turn, `Cc1ccc(NC(=O)C(CCCCN)NC(=O)Nc2ccc(-c3ccccc3)cc2)cc1` [Compound 40, (S)-6-AMINO-2-(3-BIPHENYL-4-YL-UREIDO)-HEXANOIC ACID P-TOLYLAMIDE] showed an IC50 of 10 to 50 µM.
Compound `NCCCC[C@H](NC(=O)OCC1c2ccccc2-c2ccccc21)C(=O)Nc1cccc(C(F)(F)F)c1` [Compound 218, (S)-[5-AMINO-1-(3-TRIFLUOROMETHYL-PHENYLCARBAMOYL)-PENTYL]-CARBAMIC ACID 9H-FLUOREN-9-YLMETHYL ESTER] came in with an IC50 of over 50 µM.
For `Cc1ccc(NC(=O)C(CCCCN)NC(=O)Nc2ccc(C=Cc3ccccc3)cc2)cc1` [Compound 236, (S)-6-AMINO-2-[3-(4-STYRYL-PHENYL)-UREIDO]-HEXANOIC ACID P-TOLYLAMIDE] the value was under 10 µM.
For `Cc1ccc(NC(=O)C(CCCCN)NC(=O)Nc2cccc(-c3nc4ccccc4o3)c2)cc1` [Compound 257, (S)-6-AMINO-2-[3-(3-BENZOOXAZOL-2-YL-PHENYL)-UREIDO]-HEXANOIC ACID P-TOLYLAMIDE] the value was over 50 µM; for `Cc1ccc(NC(=O)C(CNC(=O)CCN)NC(=O)OCC2c3ccccc3-c3ccccc32)cc1` [Compound 178, (S)-[2-(3-AMINO-PROPIONYLAMINO)-1-P-TOLYLCARBAMOYL-ETHYL]-CARBAMIC ACID 9H-FLUOREN-9-YLMETHYL ESTER], 10 to 50 µM.
Next, `Cc1cc2cc(NC(=O)C(CCCCN)NC(=O)OCC3c4ccccc4-c4ccccc43)ccc2[nH]1` [Compound 38, (S)-[5-AMINO-1-(2-METHYL-1H-INDOL-5-YLCARBAMOYL)-PENTYL]-CARBAMIC ACID 9H-FLUOREN-9-YL METHYL ESTER]: 10 to 50 µM; `Cc1ccc(NC(=O)C(CCCCN)NC(=O)OCC2c3ccccc3-c3ccccc32)cn1` (stereo not drawn) [Compound 294, [5-AMINO-1-(6-METHYL-PYRIDIN-3-YLCARBAMOYL)-PENTYL]-CARBAMIC ACID 9H-FLUOREN-9-YLMETHYL ESTER]: over 50 µM; `Cc1ccc(NC(=O)[C@H](CCCCN)NS(=O)(=O)c2cc(Cl)cc(Cl)c2)cc1` [Compound 394, (S)-6-AMINO-2-(3,5-DICHLORO-BENZENESULFONYLAMINO)-HEXANOIC ACID P-TOLYLAMIDE]: over 50 µM.
As to `Cc1ccc(NC(=O)CC2CN(C(=O)CCN)CCN2C(=O)OCC2c3ccccc3-c3ccccc32)cc1` (stereo not drawn) [Compound 183, 4-(3-AMINO-PROPIONYL)-2-(P-TOLYLCARBAMOYL-METHYL)-PIPERAZINE-1-CARBOXYLIC ACID 9H-FLUOREN-9-YLMETHYL ESTER], the half-inhibitory concentration (IC50) is over 50 µM.
`Cc1ccc(NC(=O)[C@H](CCCCN)NC(=O)Nc2ccc(OCc3cccc(F)c3)cc2)cc1` [Compound 249, (S)-6-AMINO-2-{3-[4-(3-FLUORO-BENZYLOXY)-PHENYL]-UREIDO}-HEXANOIC ACID P-TOLYLAMIDE] gave a half-inhibitory concentration (IC50) of 10 to 50 µM.
For `NCCCC[C@H](NC(=O)Nc1ccc(OCc2ccccc2)cc1)C(=O)Nc1ccc(-n2ccnc2)cc1` [Compound 317, (S)-6-AMINO-2-[3-(4-BENZYLOXY-PHENYL)-UREIDO]-HEXANOIC ACID (4-IMIDAZOL-1-YL-PHENYL)-AMIDE] the value was over 50 µM; for `Cc1ccc(NC(=O)[C@H](CCCCN)NC(=O)COc2ccc(F)cc2)cc1` [Compound 329, (S)-6-AMINO-2-[^2-(^4-FLUORO-PHENOXY)-ACETYLAMINO]-HEXANOIC ACID P-TOLYLAMIDE], over 50 µM.
Next, `Cc1ccc(NC(=O)C(CCCNC(N)=O)NC(=O)OCC2c3ccccc3-c3ccccc32)cc1` [Compound 113, (S)-(1-P-TOLYLCARBAMOYL-4-UREIDO-BUTYL)-CARBAMIC ACID 9H-FLUOREN-9-YLMETHYL ESTER]: over 50 µM; `N[C@@H](Cc1c[nH]c2ccccc12)C(=O)NCCCC[C@H](NC(=O)OCC1c2ccccc2-c2ccccc21)C(=O)Nc1ccc(CN(C(=O)c2ccco2)C2CCCCC2)cc1` [Compound 35, (S)-[5-[2-(S)-AMINO-3-(1H-INDOL-3-YL)-PROPIONYLAMINO]-1-(4-{[CYCLOHEXYL-(FURAN-2-CARBONYL)-AMINO]-METHYL}-PHENYLCARBAMOYL)-PENTYL]-CARBAMIC ACID 9H-FLUOREN-9-YLMETHYL ESTER]: under 10 µM; `NCCCC[C@H](NC(=O)Nc1ccc(OCc2ccccc2)cc1)C(=O)NCC1CCCCC1` [Compound 265, (s)-6-AMINO-2-[3-(4-BENZYLOXY-PHENYL)-UREIDO]-HEXANOIC ACID CYCLOHEXYLMETHYL-AMIDE]: 10 to 50 µM.
The compound `Cc1ccc(NC(=O)C(CCCCN)NC(=O)Nc2ccc3ccccc3c2)cc1` [Compound 72, (S)-6-AMINO-2-(3-NAPHTHALEN-2-YL-UREIDO)-HEXANOIC ACID P-TOLYLAMIDE] registered an IC50 of 10 to 50 µM.
For `Cc1ccc(NC(=O)C2CC(O)CN2C(=O)OCC2c3ccccc3-c3ccccc32)cc1` [Compound 87, (4R,S)-4-HYDROXY-2-P-TOLYLCARBAMOYL-PYRROLIDINE-1-CARBOXYLIC ACID 9H-FLUOREN-9-YLMETHYL ESTER] the value was over 50 µM; for `Cc1ccc(NC(=O)[C@H](CCCCN)NC(=O)CNc2cccc(F)c2)cc1` [Compound 360, (S)-6-AMINO-2-[2-(3-FLUORO-PHENYLAMINO)-ACETYLAMINO]-HEXANOIC ACID P-TOLYLAMIDE], 10 to 50 µM; for `Cc1ccc(NC(=O)C2(NC(=O)OCC3c4ccccc4-c4ccccc43)CCNCC2)cc1` [Compound 138, (4-P-TOLYLCARBAMOYL-PIPERIDIN-4-YL)-CARBAMIC ACID 9H-FLUOREN-9-YLMETHYL ESTER], over 50 µM.
Next, `CCCC[C@H](NC(=O)OCC1c2ccccc2-c2ccccc21)C(=O)Nc1ccc(CN(C(=O)c2ccco2)C2CCCCC2)cc1` [Compound 37, (S)-[1-(4-{[CYCLOHEXYL-(FURAN-2-CARBONYL)-AMINO]-METHYL}-PHENYLCARBAMOYL)-PENTYL]-CARBAMIC ACID 9H-FLUOREN-9-YLMETHYL ESTER]: over 50 µM.
Compound `Cc1ccc(NC(=O)[C@H](CCCCN)NC(=O)CNc2cccc(C)c2)cc1` [Compound 355, (S)-6-AMINO-2-(2-M-TOLYLAMINO-ACETYLAMINO)-HEXANOIC ACID P-TOLYLAMIDE] returned a half-inhibitory concentration (IC50) of over 50 µM.
Next, `Cc1ccc(NC(=O)C(CCCCN)NC(=O)Nc2ccc(CN(C)c3ccc(C)cc3)cc2)cc1` [Compound 292, (S)-6-AMINO-2-(3-{4-[(METHYL-P-TOLYL-AMINO)-METHYL]-PHENYL}-UREIDO)-HEXANOIC ACID P-TOLYLAMIDE]: over 50 µM; `Cc1ccc(NC(=O)C(CCCCN)NS(=O)(=O)c2ccc(S(=O)(=O)c3ccccc3)s2)cc1` [Compound 389, (S)-6-AMINO-2-(5-BENZENESULFONYL-THIOPHENE-2-SULFONYLAMINO)-HEXANOIC ACID P-TOLYLAMIDE]: over 50 µM; `CC(=O)Nc1ccc(NC(=O)[C@H](CCCCN)NC(=O)OCC2c3ccccc3-c3ccccc32)cc1` [Compound 230, (S)-[1-(4-ACETYLAMINO-PHENYLCARBAMOYL)-5-AMINO-PENTYL]-CARBAMIC ACID 9H-FLUOREN-9-YLMETHYL ESTER]: over 50 µM.
Next, `N[C@@H](CNC(=O)OCC1c2ccccc2-c2ccccc21)C(=O)Nc1ccc(CN(C(=O)c2ccco2)C2CCCCC2)cc1` [Compound 17, (S)-[2-AMINO-2-(4-{[CYCLOHEXYL-(FURAN-2-CARBONYL)-AMINO]-METHYL}-PHENYLCARBAMOYL)-ETHYL]-CARBAMIC ACID 9H-FLUOREN-9-YLMETHYL ESTER]: 10 to 50 µM.
`Cc1ccc(NC(=O)[C@H](CCCCN)NC(=O)Nc2cccc(Br)c2)cc1` [Compound 118, (S)-6-AMINO-2-[3-(3-BROMO-PHENYL)-UREIDO]-HEXANOIC ACID P-TOLYLAMIDE]: the concentration for half-maximal inhibition (IC50) was over 50 µM.
Next, `NCCCC[C@H](NC(=O)Nc1ccc(OCc2ccccc2)cc1)C(=O)N1CCCCC1` [Compound 290, (S)-1-[5-AMINO-1-(PIPERIDINE-1-CARBONYL)-PENTYL]-3-(4-BENZYLOXY-PHENYL)-UREA]: over 50 µM; `Cc1ccc(NC(=O)C(CCCCNC(=O)CN)NC(=O)OCC2c3ccccc3-c3ccccc32)cc1` [Compound 176, (S)-[5-(2-AMINO-ACETYLAMINO)-1-P-TOLYLCARBAMOYL-PENTYL]-CARBAMIC ACID 9H-FLUOREN-9-YLMETHYL ESTER]: under 10 µM.
Next, `Cc1ccc(NC(=O)[C@H](CCCCN)NC(=O)CNCc2ccccc2)cc1` [Compound 337, (S)-6-AMINO-2-(2-BENZYLAMINO-ACETYLAMINO)-HEXANOIC ACID P-TOLYLAMIDE]: over 50 µM.

For orientation: IC50 means the concentration needed to halve the response being measured. A high value points to weaker potency.

The values above are taken from patent US20070021434A1, “NON-NUCLEOSIDE ANTI-HEPACIVIRUS AGENTS AND USES THEREOF” (Migenix Inc., priority 2005, published 2007).
